The assay concerns CcrM from Moraxella lincolnii. Briefly: radiochemical DNA methylation assay. Type of assay: biochemical, Lwoffella lincolnii. The conditions noted are these: read-out: M. lincolnii IC50; DNA and AdoMet as substrates.

The IC50 is the concentration that inhibits the measured activity by half. On to NSC317003 [NSC 2], for which the IC50 was 45.8 ± 3.2 µM.

Source of the values: article PMC12019475 (ACS Omega, 2025).
